Data published in patent US10583092B2, “Therapeutic nanoparticles comprising a protonatable nitrogen therapeutic agent and methods of making and using same” (Pfizer Inc., priority 2014, dated 2020).

Test: Solubility of dasatinib in solvents, quantified using HPLC
Assay type: physicochemical
Details: benzyl alcohol doped with oleic acid versus benzyl alcohol
From the text: The solubility of dasatinib in benzyl alcohol, ethyl acetate, and mixtures of oleic acid and benzyl alcohol were quantified using HPLC.

**Q.** Which improvement of solubility does the source give for `Cc1nc(Nc2ncc(C(=O)Nc3c(C)cccc3Cl)s2)cc(N2CCN(CCO)CC2)n1` [dasatinib] here?
**A.** 2-3 fold
